The source made the active and inactive calls. Cut-off read from the data, not from the text of the source, for most assays here: actives have a measured Kd and inactives only a lower limit.

The text below walks through data of ChEMBL document CHEMBL3991601, “The target landscape of clinical kinase drugs” (Science, 2017).

Test [1] addresses T1, Serine/threonine-protein kinase ICK (Homo sapiens, UniProt Q9UPZ9).
T1 sequence (Q9UPZ9 whole entry): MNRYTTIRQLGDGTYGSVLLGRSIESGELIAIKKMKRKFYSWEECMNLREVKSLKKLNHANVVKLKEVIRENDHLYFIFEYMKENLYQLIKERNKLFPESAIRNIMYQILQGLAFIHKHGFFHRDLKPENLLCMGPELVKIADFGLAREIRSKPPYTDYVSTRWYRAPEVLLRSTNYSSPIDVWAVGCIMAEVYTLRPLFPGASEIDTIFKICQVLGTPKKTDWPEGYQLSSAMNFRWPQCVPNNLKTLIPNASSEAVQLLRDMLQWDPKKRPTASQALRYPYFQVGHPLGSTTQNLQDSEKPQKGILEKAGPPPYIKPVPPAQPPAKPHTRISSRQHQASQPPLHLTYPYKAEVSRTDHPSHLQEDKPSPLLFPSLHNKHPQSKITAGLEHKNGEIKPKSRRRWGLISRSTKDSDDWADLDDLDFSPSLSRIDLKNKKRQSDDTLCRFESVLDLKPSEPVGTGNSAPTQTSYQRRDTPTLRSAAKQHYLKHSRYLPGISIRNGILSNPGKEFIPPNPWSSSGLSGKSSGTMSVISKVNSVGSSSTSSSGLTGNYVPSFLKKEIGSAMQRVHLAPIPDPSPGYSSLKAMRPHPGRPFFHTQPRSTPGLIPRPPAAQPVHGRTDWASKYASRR

Test [2] deals with AP2-associated protein kinase 1 (Homo sapiens, UniProt Q2M2I8).
Test [3] addresses T2, Serine/threonine-protein kinase Nek2 (Homo sapiens, UniProt P51955).
T2 sequence (P51955 whole entry): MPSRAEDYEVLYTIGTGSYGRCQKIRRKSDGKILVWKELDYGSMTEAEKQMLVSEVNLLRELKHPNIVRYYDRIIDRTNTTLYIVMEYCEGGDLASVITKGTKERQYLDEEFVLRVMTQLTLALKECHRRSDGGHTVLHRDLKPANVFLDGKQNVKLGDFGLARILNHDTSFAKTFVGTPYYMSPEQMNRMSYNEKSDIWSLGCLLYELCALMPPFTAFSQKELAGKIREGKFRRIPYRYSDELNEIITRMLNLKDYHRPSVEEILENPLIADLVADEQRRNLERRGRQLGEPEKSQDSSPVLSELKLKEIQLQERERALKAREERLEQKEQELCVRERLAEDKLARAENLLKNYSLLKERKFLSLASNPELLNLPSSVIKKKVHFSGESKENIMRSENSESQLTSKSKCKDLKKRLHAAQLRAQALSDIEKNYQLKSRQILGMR

The target of a further test is TGF-beta receptor type-2 (Homo sapiens, UniProt P37173).
Test [4] deals with Tyrosine-protein kinase BTK (Homo sapiens, UniProt Q06187).
The target of test [5] is Myosin light chain kinase, smooth muscle (Homo sapiens, UniProt Q15746).
The target in test [6] is T3, Cytochrome c1, heme protein, mitochondrial (Homo sapiens, UniProt P08574).
T3 sequence (P08574 whole entry): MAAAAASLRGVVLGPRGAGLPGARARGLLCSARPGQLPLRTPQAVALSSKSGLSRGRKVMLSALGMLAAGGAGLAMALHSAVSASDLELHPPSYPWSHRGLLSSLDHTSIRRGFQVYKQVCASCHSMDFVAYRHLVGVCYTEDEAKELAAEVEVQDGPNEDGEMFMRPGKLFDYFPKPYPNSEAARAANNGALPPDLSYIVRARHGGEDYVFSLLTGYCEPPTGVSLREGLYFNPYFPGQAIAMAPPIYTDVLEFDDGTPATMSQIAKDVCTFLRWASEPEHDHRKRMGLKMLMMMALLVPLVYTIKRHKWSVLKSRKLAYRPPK

Test [7] has as its target Receptor-interacting serine/threonine-protein kinase 2 (Homo sapiens, UniProt O43353).
Test [8] addresses Elongation factor Tu, mitochondrial (Homo sapiens, UniProt P49411).
Test [9] has as its target Casein kinase I isoform alpha (Homo sapiens, UniProt P48729).
Note: in the data inactive means no Kd found up to 30 µM.

Chain of AP2-associated protein kinase 1 (Q2M2I8 whole entry): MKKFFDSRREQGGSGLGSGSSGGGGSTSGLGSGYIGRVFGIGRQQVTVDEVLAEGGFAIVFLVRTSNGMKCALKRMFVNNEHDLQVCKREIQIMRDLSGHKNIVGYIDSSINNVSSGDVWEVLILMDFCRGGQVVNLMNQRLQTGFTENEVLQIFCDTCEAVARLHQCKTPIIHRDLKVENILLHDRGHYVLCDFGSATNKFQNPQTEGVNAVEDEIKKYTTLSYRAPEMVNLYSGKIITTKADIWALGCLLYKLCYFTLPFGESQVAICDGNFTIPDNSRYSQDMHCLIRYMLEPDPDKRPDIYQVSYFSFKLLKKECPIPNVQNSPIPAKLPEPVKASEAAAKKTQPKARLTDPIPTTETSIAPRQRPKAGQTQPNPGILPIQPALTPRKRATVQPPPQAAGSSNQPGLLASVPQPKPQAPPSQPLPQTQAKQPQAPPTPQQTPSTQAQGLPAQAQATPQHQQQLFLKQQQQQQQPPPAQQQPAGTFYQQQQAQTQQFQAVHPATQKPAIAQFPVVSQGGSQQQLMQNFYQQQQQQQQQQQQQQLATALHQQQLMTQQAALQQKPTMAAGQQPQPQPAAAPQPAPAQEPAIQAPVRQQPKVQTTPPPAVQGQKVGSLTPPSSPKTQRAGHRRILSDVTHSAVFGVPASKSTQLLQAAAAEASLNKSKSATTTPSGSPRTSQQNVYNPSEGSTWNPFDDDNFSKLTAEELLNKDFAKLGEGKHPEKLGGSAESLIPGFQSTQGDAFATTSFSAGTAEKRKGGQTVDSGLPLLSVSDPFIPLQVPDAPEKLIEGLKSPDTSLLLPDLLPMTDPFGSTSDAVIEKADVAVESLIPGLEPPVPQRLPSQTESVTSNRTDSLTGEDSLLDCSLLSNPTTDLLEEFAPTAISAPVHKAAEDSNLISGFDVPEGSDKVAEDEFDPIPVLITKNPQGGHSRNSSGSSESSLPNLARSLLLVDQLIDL
Chain of Casein kinase I isoform alpha (P48729 whole entry, canonical isoform): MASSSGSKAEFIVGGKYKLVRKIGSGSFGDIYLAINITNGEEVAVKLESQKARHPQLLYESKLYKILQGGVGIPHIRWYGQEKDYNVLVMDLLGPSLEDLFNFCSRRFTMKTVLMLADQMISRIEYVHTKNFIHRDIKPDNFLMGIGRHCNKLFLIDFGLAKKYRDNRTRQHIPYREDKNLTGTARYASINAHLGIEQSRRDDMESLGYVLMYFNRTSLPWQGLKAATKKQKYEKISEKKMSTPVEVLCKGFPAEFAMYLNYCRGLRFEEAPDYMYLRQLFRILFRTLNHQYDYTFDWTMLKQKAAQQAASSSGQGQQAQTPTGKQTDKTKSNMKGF
Chain of TGF-beta receptor type-2 (P37173 whole entry): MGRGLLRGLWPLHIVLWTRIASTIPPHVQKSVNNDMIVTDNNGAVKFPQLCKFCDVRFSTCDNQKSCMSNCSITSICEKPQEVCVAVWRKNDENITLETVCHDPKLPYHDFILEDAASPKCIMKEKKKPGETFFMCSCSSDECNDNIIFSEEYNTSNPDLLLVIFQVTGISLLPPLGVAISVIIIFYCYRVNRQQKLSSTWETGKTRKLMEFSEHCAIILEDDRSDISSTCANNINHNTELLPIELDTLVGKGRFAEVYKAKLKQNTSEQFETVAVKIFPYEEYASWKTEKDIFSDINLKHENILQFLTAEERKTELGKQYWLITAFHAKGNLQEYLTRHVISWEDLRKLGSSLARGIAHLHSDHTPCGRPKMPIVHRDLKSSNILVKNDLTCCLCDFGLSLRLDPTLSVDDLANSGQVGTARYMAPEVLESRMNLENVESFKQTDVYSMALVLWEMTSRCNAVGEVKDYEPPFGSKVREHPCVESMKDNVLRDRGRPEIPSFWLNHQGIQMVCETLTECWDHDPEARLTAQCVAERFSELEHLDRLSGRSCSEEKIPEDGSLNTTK
Chain of Tyrosine-protein kinase BTK (Q06187 whole entry): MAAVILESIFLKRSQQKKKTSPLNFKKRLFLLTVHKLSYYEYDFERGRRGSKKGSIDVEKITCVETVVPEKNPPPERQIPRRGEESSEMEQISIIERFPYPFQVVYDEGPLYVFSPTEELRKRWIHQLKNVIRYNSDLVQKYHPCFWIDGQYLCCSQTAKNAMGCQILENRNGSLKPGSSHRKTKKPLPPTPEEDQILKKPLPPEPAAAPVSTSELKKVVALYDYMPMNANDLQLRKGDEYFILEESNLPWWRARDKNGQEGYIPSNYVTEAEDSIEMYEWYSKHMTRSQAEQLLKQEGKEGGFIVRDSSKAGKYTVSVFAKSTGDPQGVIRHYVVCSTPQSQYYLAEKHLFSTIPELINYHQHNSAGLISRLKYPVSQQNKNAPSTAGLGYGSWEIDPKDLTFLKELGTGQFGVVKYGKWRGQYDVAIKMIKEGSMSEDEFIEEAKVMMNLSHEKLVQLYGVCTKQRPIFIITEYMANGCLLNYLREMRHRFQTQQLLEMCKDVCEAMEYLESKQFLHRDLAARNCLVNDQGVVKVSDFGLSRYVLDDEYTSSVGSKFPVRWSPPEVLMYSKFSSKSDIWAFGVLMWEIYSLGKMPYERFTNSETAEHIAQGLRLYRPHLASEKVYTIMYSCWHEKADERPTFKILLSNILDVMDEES
Chain of Myosin light chain kinase, smooth muscle (Q15746 whole entry): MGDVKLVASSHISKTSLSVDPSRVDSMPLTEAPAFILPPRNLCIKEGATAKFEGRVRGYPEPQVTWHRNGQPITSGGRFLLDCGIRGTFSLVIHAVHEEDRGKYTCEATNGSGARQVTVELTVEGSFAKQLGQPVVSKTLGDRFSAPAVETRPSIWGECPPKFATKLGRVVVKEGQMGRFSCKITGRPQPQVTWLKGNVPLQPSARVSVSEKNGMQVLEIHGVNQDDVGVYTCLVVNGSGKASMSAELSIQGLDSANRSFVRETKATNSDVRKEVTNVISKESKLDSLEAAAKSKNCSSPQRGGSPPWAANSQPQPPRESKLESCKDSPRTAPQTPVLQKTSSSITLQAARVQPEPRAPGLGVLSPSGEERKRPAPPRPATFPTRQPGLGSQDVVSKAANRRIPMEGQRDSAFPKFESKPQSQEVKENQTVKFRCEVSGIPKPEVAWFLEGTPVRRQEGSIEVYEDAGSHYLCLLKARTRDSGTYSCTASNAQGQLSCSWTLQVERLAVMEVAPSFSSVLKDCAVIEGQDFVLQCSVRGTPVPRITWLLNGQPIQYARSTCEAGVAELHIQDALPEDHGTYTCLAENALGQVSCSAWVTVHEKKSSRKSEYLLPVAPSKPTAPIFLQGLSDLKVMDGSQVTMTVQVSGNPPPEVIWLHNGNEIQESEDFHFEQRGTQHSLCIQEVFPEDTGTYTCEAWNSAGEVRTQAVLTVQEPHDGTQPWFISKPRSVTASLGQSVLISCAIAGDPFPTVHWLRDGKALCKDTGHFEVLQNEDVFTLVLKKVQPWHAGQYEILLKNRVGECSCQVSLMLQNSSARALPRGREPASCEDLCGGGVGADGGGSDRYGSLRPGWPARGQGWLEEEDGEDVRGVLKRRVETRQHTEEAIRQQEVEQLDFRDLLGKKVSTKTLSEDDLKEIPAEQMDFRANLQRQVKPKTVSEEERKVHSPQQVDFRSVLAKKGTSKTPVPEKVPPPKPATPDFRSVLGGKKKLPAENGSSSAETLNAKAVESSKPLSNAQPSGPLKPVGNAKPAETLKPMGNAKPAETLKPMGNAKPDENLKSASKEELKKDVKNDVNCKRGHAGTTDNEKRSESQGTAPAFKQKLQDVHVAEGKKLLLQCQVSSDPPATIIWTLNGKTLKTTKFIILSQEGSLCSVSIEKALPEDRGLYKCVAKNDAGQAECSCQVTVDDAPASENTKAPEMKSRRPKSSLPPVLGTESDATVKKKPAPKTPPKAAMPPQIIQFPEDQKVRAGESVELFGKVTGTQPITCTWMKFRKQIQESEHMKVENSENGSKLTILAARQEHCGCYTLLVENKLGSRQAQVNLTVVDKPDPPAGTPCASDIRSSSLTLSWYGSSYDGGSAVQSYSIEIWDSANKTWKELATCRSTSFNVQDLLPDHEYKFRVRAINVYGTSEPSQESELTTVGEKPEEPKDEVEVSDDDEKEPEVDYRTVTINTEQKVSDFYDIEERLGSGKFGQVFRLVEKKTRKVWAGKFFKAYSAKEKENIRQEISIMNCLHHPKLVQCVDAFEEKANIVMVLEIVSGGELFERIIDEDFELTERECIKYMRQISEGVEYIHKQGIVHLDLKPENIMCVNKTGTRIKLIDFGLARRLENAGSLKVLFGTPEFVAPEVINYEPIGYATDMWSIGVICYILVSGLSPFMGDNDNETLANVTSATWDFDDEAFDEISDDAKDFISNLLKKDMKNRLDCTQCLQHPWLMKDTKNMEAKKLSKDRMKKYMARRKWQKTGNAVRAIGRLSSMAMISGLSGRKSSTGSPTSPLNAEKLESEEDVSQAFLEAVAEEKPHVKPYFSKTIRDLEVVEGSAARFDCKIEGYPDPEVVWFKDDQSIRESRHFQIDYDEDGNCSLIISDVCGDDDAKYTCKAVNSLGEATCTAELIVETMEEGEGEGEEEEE
Chain of Receptor-interacting serine/threonine-protein kinase 2 (O43353 whole entry): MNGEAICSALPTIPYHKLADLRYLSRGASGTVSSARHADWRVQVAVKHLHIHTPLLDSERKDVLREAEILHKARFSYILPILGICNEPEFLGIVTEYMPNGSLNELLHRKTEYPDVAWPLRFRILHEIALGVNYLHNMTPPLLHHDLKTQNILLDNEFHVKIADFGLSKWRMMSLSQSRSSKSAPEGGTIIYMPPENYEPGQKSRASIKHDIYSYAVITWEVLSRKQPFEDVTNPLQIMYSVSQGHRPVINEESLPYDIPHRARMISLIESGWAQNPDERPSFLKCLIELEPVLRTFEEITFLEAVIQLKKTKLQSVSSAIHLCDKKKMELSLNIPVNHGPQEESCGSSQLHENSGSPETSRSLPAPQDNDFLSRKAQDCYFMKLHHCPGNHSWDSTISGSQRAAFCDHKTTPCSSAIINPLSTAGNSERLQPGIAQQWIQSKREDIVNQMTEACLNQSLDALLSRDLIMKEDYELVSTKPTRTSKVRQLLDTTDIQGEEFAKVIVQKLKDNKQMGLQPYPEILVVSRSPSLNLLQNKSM

By Kd is commonly meant the constant that tells how readily two partners part at equilibrium. For `CO[C@H]1C[C@@H]2CC[C@@H](C)[C@@](O)(O2)C(=O)C(=O)N2CCCC[C@H]2C(=O)O[C@H]([C@H](C)C[C@@H]2CC[C@@H](OP(C)(C)=O)[C@H](OC)C2)CC(=O)[C@H](C)/C=C(\C)[C@@H](O)[C@@H](OC)C(=O)[C@H](C)C[C@H](C)/C=C/C=C/C=C/1C` [RIDAFOROLIMUS], the Kd (in [1]; in [2]; in [3]; on TGF-beta receptor type-2; in test [4]; in test [5]) was > 30 µM (inactive) throughout. The Kd in test [6], in [7], in test [8] and in test [9] was > 30 µM (inactive) in each case.

In the case of `N#CC1(c2ccc(NC(=O)c3cccnc3NCc3ccncc3)cc2)CCCC1` [RIVOCERANIB], the Kd (in test [1]; in test [2]; in [3]; at TGF-beta receptor type-2; in test [4]; in test [5]) was > 30 µM (inactive) each time. Further, the Kd in test [6], in test [7], in test [8] and in [9] was > 30 µM (inactive) in each case.

Regarding `O=c1[nH]ccc2cc(OC3CCNCC3)ccc12` [SAR-407899 FREE BASE], the Kd in [1] was > 30 µM (inactive); in [2], 0.012 µM (active); in test [3], > 30 µM (inactive); at TGF-beta receptor type-2, > 30 µM (inactive); in [4], > 30 µM (inactive); in test [5] it was > 30 µM (inactive). Further, the Kd in test [6], in test [7], in test [8] and in test [9] was > 30 µM (inactive) each time.

Consider `CN1CCN(CCOc2cc(OC3CCOCC3)c3c(Nc4c(Cl)ccc5c4OCO5)ncnc3c2)CC1` [SARACATINIB], for which the Kd in [1] is > 30 µM (inactive); in test [2] it was > 30 µM (inactive); in test [3], > 30 µM (inactive); on TGF-beta receptor type-2, > 30 µM (inactive); in test [4], 10.2 µM (active); in [5], > 30 µM (inactive). For the same molecule, the Kd is > 30 µM (inactive) in test [6], 0.002 µM (active) in test [7], > 30 µM (inactive) in test [8] and > 30 µM (inactive) in test [9].

As for `Cn1cc(-c2cnn3c(N)c(Br)c([C@@H]4CCCNC4)nc23)cn1` [SCH-900776], the Kd in [1] was > 30 µM (inactive); in test [2] it was > 30 µM (inactive); in test [3], > 30 µM (inactive); at TGF-beta receptor type-2, 4.72 µM (active); in test [4], > 30 µM (inactive); in [5], > 30 µM (inactive). The Kd in test [6], in test [7], in test [8] and in [9] was > 30 µM (inactive) throughout.

As to `CO[C@H]1C[C@@H]2CC[C@@H](C)[C@@](O)(O2)C(=O)C(=O)N2CCCC[C@H]2C(=O)O[C@H]([C@H](C)C[C@@H]2CC[C@@H](O)[C@H](OC)C2)CC(=O)[C@H](C)/C=C(\C)[C@@H](O)[C@@H](OC)C(=O)[C@H](C)C[C@H](C)/C=C/C=C/C=C/1C` [SIROLIMUS], the Kd (in [1]; in [2]; in test [3]; at TGF-beta receptor type-2; in test [4]; in [5]) was > 30 µM (inactive) throughout. Moreover, the Kd in test [6], in test [7], in test [8] and in test [9] was > 30 µM (inactive) throughout.

With `CCS(=O)(=O)c1cccc(-c2cc(C(=O)NC3CCN(C)CC3)c(C)c3[nH]c4ncc(C)cc4c23)c1` [TAK-901], the Kd in [1] was > 30 µM (inactive); in test [2] it was > 30 µM (inactive); in test [3], > 30 µM (inactive); at TGF-beta receptor type-2 it was > 30 µM (inactive); in test [4] it was 0.328 µM (active); in test [5] it was > 30 µM (inactive). For the same molecule, the Kd in test [6], in [7], in [8] and in test [9] was > 30 µM (inactive) in each case.

Take `CO[C@H]1C[C@@H]2CC[C@@H](C)[C@@](O)(O2)C(=O)C(=O)N2CCCC[C@H]2C(=O)O[C@H]([C@H](C)C[C@@H]2CC[C@@H](OC(=O)C(C)(CO)CO)[C@H](OC)C2)CC(=O)[C@H](C)/C=C(\C)[C@@H](O)[C@@H](OC)C(=O)[C@H](C)C[C@H](C)/C=C/C=C/C=C/1C` [TEMSIROLIMUS]: the Kd (in test [1]; in test [2]; in test [3]; at TGF-beta receptor type-2; in test [4]; in test [5]) was > 30 µM (inactive) each time. Also, the Kd in test [6], in [7], in test [8] and in [9] was > 30 µM (inactive) each time.

`COc1cc2c(Nc3ccc(Cl)c(Cl)c3F)ncnc2cc1OC[C@@H]1C[C@@H]2CN(C)C[C@@H]2C1` [TESEVATINIB]: the Kd is > 30 µM (inactive) in test [1]; > 30 µM (inactive) in test [2]; > 30 µM (inactive) in test [3]; > 30 µM (inactive) on TGF-beta receptor type-2; 1.62 µM (active) in [4]; > 30 µM (inactive) in test [5]. Besides, the Kd was > 30 µM (inactive) in [6], 0.033 µM (active) in [7], > 30 µM (inactive) in [8] and > 30 µM (inactive) in test [9].

In the case of `O=C(Cc1ccc(-c2ccc(OCCN3CCOCC3)cc2)cn1)NCc1ccccc1` [TIRBANIBULIN], the Kd (in test [1]; in [2]; in test [3]; on TGF-beta receptor type-2; in [4]; in test [5]) was > 30 µM (inactive) in each case. The Kd in test [6], in test [7], in [8] and in test [9] was > 30 µM (inactive) throughout.

With `O=C1NC(=O)[C@@H](c2cn3c4c(cccc24)CCC3)[C@@H]1c1c[nH]c2ccccc12` [TIVANTINIB], the Kd (in test [1]; in [2]; in test [3]; at TGF-beta receptor type-2; in [4]; in test [5]) was > 30 µM (inactive) throughout. Also, the Kd in test [6], in [7], in test [8] and in test [9] was > 30 µM (inactive) throughout.

On to `C[C@@H](NC(=O)c1ncnc(N)c1Cl)c1ncc(C(=O)Nc2cc(C(F)(F)F)c(Cl)cn2)s1` [TOVORAFENIB], for which the Kd was > 30 µM (inactive) in [1]; > 30 µM (inactive) in test [2]; > 30 µM (inactive) in test [3]; 1.64 µM on TGF-beta receptor type-2; > 30 µM (inactive) in test [4]; 4.41 µM in [5]. Besides, the Kd in [6], in [7], in test [8] and in test [9] was > 30 µM (inactive) each time.
